# Data taken from patent US12404241B2 (Celgene Corporation, priority 2018, dated 2025).
# Structures can show the parent of a compound that is named as a salt.
# Target: T1, AR (Homo sapiens, UniProt P10275)
# T1 construct: endogenous in cells; host or cells: VCaP cells
# T1 sequence (P10275 1-920): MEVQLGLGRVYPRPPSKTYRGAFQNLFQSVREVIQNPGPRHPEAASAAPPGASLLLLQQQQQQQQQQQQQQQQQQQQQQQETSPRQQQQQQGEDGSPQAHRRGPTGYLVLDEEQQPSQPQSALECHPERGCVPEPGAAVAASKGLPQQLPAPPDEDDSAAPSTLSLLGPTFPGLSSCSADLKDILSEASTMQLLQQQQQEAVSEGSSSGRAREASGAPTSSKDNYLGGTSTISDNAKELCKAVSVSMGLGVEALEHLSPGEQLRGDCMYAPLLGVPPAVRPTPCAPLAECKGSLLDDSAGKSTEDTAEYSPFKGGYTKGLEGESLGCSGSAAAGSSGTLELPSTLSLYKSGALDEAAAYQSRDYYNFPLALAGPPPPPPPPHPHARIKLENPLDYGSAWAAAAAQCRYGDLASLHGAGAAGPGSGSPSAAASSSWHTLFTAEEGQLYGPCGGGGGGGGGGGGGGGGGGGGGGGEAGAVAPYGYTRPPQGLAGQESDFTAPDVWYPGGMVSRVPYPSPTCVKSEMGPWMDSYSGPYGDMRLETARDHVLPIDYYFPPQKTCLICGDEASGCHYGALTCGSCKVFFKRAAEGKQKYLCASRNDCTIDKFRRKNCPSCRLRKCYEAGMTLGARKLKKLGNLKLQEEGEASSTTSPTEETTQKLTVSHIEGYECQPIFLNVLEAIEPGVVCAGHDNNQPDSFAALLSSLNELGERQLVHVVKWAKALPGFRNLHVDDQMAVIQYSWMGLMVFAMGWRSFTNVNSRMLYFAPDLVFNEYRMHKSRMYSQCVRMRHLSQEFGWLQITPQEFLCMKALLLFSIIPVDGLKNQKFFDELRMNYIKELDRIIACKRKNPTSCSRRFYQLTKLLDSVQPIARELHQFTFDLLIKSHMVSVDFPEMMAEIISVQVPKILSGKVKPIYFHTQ
# Test: VCAP AR Degradation Assay
# Format: cell-based
# Conditions: for Y (AR degradation efficiency, % of DMSO control): class symbols *; for DC50: class symbols A-C, read-out: DC50
# Summary of the method: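 Compounds were plated as 10-point 1:3 series reaching 5 μM final, then VCaP cells were seeded onto them and incubated 24 h at 37 °C. Cells were lysed cold, and total AR was measured by sandwich ELISA relative to 0.1% DMSO wells.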
Structure (SMILES),"Y (AR degradation efficiency, % of DMSO control)",DC50
"CCc1cc(N2C(=S)N(c3cnc(C#N)c(C(F)(F)F)c3)C(=O)C2(C)C)ccc1OCCN1CCN(CC(=O)Nc2cc(Cl)cc(NC3CCC(=O)NC3=O)c2)C2(CC2)C1 (centres unmarked) [Example 102, N-(3-chloro-5-(2,6-dioxopiperidin-3-ylamino)phenyl)-2-(7-(2-(4-(3-(6-cyano-5-(trifluoromethyl)pyridin-3-yl)-5,5-dimethyl-4-oxo-2-thioxoimidazolidin-1-yl)-2-ethylphenoxy)ethyl)-4,7-diazaspiro[2.5]octan-4-yl)acetamide]",* (0<Y<=25%),< 100 nM
"CCc1cc(N2C(=S)N(c3ccc(C#N)c(C(F)(F)F)c3)C(=O)C2(C)C)ccc1OCCN1CCN(CC(=O)Nc2cccc(N[C@H]3CCC(=O)NC3=O)c2)CC1 [Example 27, hydrochloride]",* (0<Y<=25%),< 100 nM
"CC1(C)C(=O)N(c2ccc(C#N)c(C(F)(F)F)c2)C(=S)N1c1ccc(OCCN2CCN(CC(=O)Nc3cccc(NC4CCC(=O)NC4=O)c3)CC2)c(C(F)(F)F)c1 (centres unmarked) [Example 12, hydrochloride]",*** (35%<Y<50%),100 to 500 nM
"C[C@@H](C(=O)Nc1cccc(NC2CCC(=O)NC2=O)c1)N1CCN(CCOc2ccc(N3C(=S)N(c4ccc(C#N)c(C(F)(F)F)c4)C(=O)C3(C)C)cc2Cl)CC1 (some centres unmarked) [Example 21, hydrochloride]",* (0<Y<=25%),< 100 nM
"CCc1cc(N2C(=S)N(c3ccc(C#N)c(C(F)(F)F)c3)C(=O)C2(C)C)ccc1OCCN1CCN([C@H](C)C(=O)Nc2cccc(NC3CCC(=O)NC3=O)c2)CC1 (stereo partly drawn) [Example 199, (2R)-2-(4-(2-(4-(3-(4-cyano-3-(trifluoromethyl)phenyl)-5,5-dimethyl-4-oxo-2-thioxoimidazolidin-1-yl)-2-ethylphenoxy)ethyl)piperazin-1-yl)-N-(3-(2,6-dioxopiperidin-3-ylamino)phenyl)propanamide]",** (25%<Y<=35%),< 100 nM
"CC(C)c1cc(N2C(=S)N(c3cnc(C#N)c(C(F)(F)F)c3)C(=O)C23CCC3)ccc1OCCN1C[C@@H](C)N(CC(=O)Nc2cc(F)cc(NC3CCC(=O)NC3=O)c2)[C@@H](C)C1 (stereo partly drawn) [Example 211, 2-((2S,6R)-4-(2-(4-(7-(6-cyano-5-(trifluoromethyl)pyridin-3-yl)-8-oxo-6-thioxo-5,7-diazaspiro[3.4]octan-5-yl)-2-isopropylphenoxy)ethyl)-2,6-dimethylpiperazin-1-yl)-N-(3-(2,6-dioxopiperidin-3-ylamino)-5-fluorophenyl)acetamide]",* (0<Y<=25%),< 100 nM
"C[C@@H]1CN(CCOc2ccc(N3C(=S)N(c4ccc(C#N)c(C(F)(F)F)c4)C(=O)C3(C)C)cc2Cl)C[C@H](C)N1CC(=O)Nc1cccc(NC2CCC(=O)NC2=O)c1 (stereo partly drawn) [Example 282, 2-((2S,6R)-4-(2-(2-chloro-4-(3-(4-cyano-3-(trifluoromethyl)phenyl)-5,5-dimethyl-4-oxo-2-thioxoimidazolidin-1-yl)phenoxy)ethyl)-2,6-dimethylpiperazin-1-yl)-N-(3-(2,6-dioxopiperidin-3-ylamino)phenyl)acetamide]",* (0<Y<=25%),< 100 nM
"CCc1cc(N2C(=S)N(c3ccc(C#N)c(C(F)(F)F)c3)C(=O)C23CCC3)ccc1OCCN1CCN(CC(=O)Nc2cc(F)cc(NC3CCC(=O)NC3=O)c2)[C@H](C)C1 (stereo partly drawn) [Example 104, 2-((R)-4-(2-(4-(7-(4-cyano-3-(trifluoromethyl)phenyl)-8-oxo-6-thioxo-5,7-diazaspiro[3.4]octan-5-yl)-2-ethylphenoxy)ethyl)-2-methylpiperazin-1-yl)-N-(3-(2,6-dioxopiperidin-3-ylamino)-5-fluorophenyl)acetamide]",* (0<Y<=25%),< 100 nM
"CCc1cc(N2C(=S)N(c3ccc(C#N)c(C(F)(F)F)c3)C(=O)C2(C)C)ccc1OCCN1C[C@H](C)N(CC(=O)Nc2cccc(NC3CCC(=O)NC3=O)c2)[C@@H](C)C1 (stereo partly drawn) [Example 146, 2-((2S,6S)-4-(2-(4-(3-(4-cyano-3-(trifluoromethyl)phenyl)-5,5-dimethyl-4-oxo-2-thioxoimidazolidin-1-yl)-2-ethylphenoxy)ethyl)-2,6-dimethylpiperazin-1-yl)-N-(3-(2,6-dioxopiperidin-3-ylamino)phenyl)acetamide]",* (0<Y<=25%),< 100 nM
"CCc1cc(N2C(=S)N(c3ccc(C#N)c(C(F)(F)F)c3)C(=O)C2(C)C)c(F)cc1OCCN1C[C@@H](C)N(CC(=O)Nc2cccc(NC3CCC(=O)NC3=O)c2)[C@@H](C)C1 (stereo partly drawn) [Example 247, 2-((2S,6R)-4-(2-(4-(3-(4-cyano-3-(trifluoromethyl)phenyl)-5,5-dimethyl-4-oxo-2-thioxoimidazolidin-1-yl)-2-ethyl-5-fluorophenoxy)ethyl)-2,6-dimethylpiperazin-1-yl)-N-(3-(2,6-dioxopiperidin-3-ylamino)phenyl)acetamide]",* (0<Y<=25%),< 100 nM
"CC(C)c1cc(N2C(=S)N(c3ccc(C#N)c(C(F)(F)F)c3)C(=O)C2(C)C)ccc1OCCN1C[C@@H](C)N(CC(=O)Nc2cc(C#N)cc(NC3CCC(=O)NC3=O)c2)[C@@H](C)C1 (stereo partly drawn) [Example 194, 2-((2S,6R)-4-(2-(4-(3-(4-cyano-3-(trifluoromethyl)phenyl)-5,5-dimethyl-4-oxo-2-thioxoimidazolidin-1-yl)-2-isopropylphenoxy)ethyl)-2,6-dimethylpiperazin-1-yl)-N-(3-cyano-5-(2,6-dioxopiperidin-3-ylamino)phenyl)acetamide]",* (0<Y<=25%),< 100 nM
"CC1(C)C(=O)N(c2cnc(C#N)c(C(F)(F)F)c2)C(=S)N1c1ccc(OCCN2CCN(CC(=O)Nc3cccc(NC4CCC(=O)NC4=O)c3)CC2)c(Cl)c1 (centres unmarked) [Example 5, hydrochloride]",* (0<Y<=25%),< 100 nM
"CC(C)c1cc(N2C(=S)N(c3ccc(C#N)c(Cl)c3)C(=O)C2(C)C)ccc1OCCN1C[C@@H](C)N(CC(=O)Nc2cc(Cl)cc(NC3CCC(=O)NC3=O)c2)[C@@H](C)C1 (stereo partly drawn) [Example 223, 2-((2S,6R)-4-(2-(4-(3-(3-chloro-4-cyanophenyl)-5,5-dimethyl-4-oxo-2-thioxoimidazolidin-1-yl)-2-isopropylphenoxy)ethyl)-2,6-dimethylpiperazin-1-yl)-N-(3-chloro-5-(2,6-dioxopiperidin-3-ylamino)phenyl)acetamide]",** (25%<Y<=35%),100 to 500 nM
"CCc1cc(N2C(=S)N(c3ccc(C#N)c(C(F)(F)F)c3)C(=O)C2(C)C)ccc1OCCN1CCN([C@H](C)C(=O)Nc2cccc(NC3CCC(=O)NC3=O)c2)[C@H](C)C1 (stereo partly drawn) [Example 280, (2R)-2-((R)-4-(2-(4-(3-(4-cyano-3-(trifluoromethyl)phenyl)-5,5-dimethyl-4-oxo-2-thioxoimidazolidin-1-yl)-2-ethylphenoxy)ethyl)-2-methylpiperazin-1-yl)-N-(3-(2,6-dioxopiperidin-3-ylamino)phenyl)propanamide]",*** (35%<Y<50%),100 to 500 nM
"C[C@@H]1CN(CCOc2ccc(N3C(=S)N(c4ccc(C#N)c(C(F)(F)F)c4)C(=O)C3(C)C)cc2C2CC2)CCN1CC(=O)Nc1cccc(NC2CCC(=O)NC2=O)c1 (stereo partly drawn) [Example 272, 2-((R)-4-(2-(4-(3-(4-cyano-3-(trifluoromethyl)phenyl)-5,5-dimethyl-4-oxo-2-thioxoimidazolidin-1-yl)-2-cyclopropylphenoxy)ethyl)-2-methylpiperazin-1-yl)-N-(3-(2,6-dioxopiperidin-3-ylamino)phenyl)acetamide]",* (0<Y<=25%),< 100 nM
"C[C@@H]1CN(CCOc2ccc(N3C(=S)N(c4ccc(C#N)c(C(F)(F)F)c4)C(=O)C3(C)C)cc2C(C)(F)F)CCN1CC(=O)Nc1cc(Cl)cc(NC2CCC(=O)NC2=O)c1 (stereo partly drawn) [Example 148, N-(3-chloro-5-(2,6-dioxopiperidin-3-ylamino)phenyl)-2-((R)-4-(2-(4-(3-(4-cyano-3-(trifluoromethyl)phenyl)-5,5-dimethyl-4-oxo-2-thioxoimidazolidin-1-yl)-2-(1,1-difluoroethyl)phenoxy)ethyl)-2-methylpiperazin-1-yl)acetamide]",* (0<Y<=25%),< 100 nM
